Laboratory results published in US12226443B2, “Polyphenol composition and method of its use and manufacture in the treatment of metabolic disorders” (Vidya Herbs, Inc., priority 2018, dated 2025).

Assay: DPPH scavenging assay
Settings: composition at 100 μg/ml
Experimental: The free radical scavenging capacity of the composition was determined using DPPH scavenging assay (Braca et al. 2001). DPPH solution was prepared in 95% methanol. Freshly prepared DPPH solution was taken in test tubes and different concentration of the composition (20-100 μg/mL) were added and incubated for 20 min. The absorbance was read at 517 nm using a spectrophotometer. Blank was prepared containing the same volume of reaction mixture without any test samples. The percentage of scavenging was calculated using formula: % Scavenging=Ac−As/Ac×100 Where AC was the absorbance of the control (blank without extract) and As was the absorbance in the presence of the extract.

O=C1O[C@H]([C@@H](O)CO)C(O)=C1O [ascorbic acid]
DPPH radical scavenging, maximum activity: 96.71%
